Data reported in patent publication US20110311633A1, “Combination of a Silicon Containing Component and a Hormone” (priority 2005, published 2011).

System: Pre-osteoblast cells
Assay: Pre-osteoblast cells in oestrogen-free environment, hormone with or without silicon, total protein
Description: The cells for these respective experiments had also been passaged and maintained in media containing no added silicon (for the subsequent E2 or vehicle alone experiments) or containing 50 micromolar silicon (for the subsequent Si or E2+Si experiments).
Thus in experiments identical to those described above at the 48 hour time point, we investigated the effects of 10^−6 M progesterone instead of oestradiol.

For C[C@]12CC[C@@H]3c4ccc(O)cc4CC[C@H]3[C@@H]1CC[C@@H]2O [oestradiol], the total protein concentration (10^-9 M E2, absence of silicon, varying lengths of time, versus baseline (vehicle), FIG. 2) was “no effect”.

In the case of CC(=O)[C@H]1CC[C@H]2[C@@H]3CCC4=CC(=O)CC[C@]4(C)[C@H]3CC[C@]12C [progesterone], the total protein (10^-6 M progesterone together with silicon (50 micromolar), 48 hour time point, FIG. 4) is reported as “modest effect”.

For orthosilicic acid, the total protein (orthosilicic acid 50 micromolar without E2, oestrogen-free environment, FIG. 2) was “no significant effect”.
